Series [1] can be described thus: Hygroscopicity, moisture sorption on VTI instrument SGA 100. The conditions noted are these: for level of hygroscopicity / weight increase of the compound (moisture): 25 °C; for hygroscopicity of the solid form (general statement): hydrochloride.
Source text: There were 24 Relative Humidity steps used. The Relative Humidity at each step is as follows.
Series [2] in a line: Chemical stability of solid form. The class given is physicochemical. Conditions: compared with free acid and other salt forms, including the amorphous hydrochloride form.
A short description of series [3]: Solubility in bio-relevant media. The class given is physicochemical.

`Cl.Cn1ncc(Cl)c1-c1cc(C(=O)N[C@H](CN)Cc2cccc(F)c2)sc1Cl` [Compound A]: the level of hygroscopicity entry in series [1] (crystalline form, no drying, 24 relative humidity steps) is “low level of hygroscopicity”. In series [1] (crystalline form, no drying, 24 relative humidity steps, 5 to 90), the “weight increase of the compound (moisture)” value is given as “less than 1 % w/w”. The “hygroscopicity of the solid form (general statement)” value in series [1] is given as “non-hygroscopic”. Besides, in series [2], the chemical stability result is reported as “improved chemical stability”. Moreover, in series [3], the “solubility in bio-relevant media” value is listed as “good solubility”.
Turning to `Cl.Cn1ncc(Cl)c1-c1cc(C(=O)N[C@H](CN)Cc2cccc(F)c2)sc1Cl` [Example 3], the level of hygroscopicity result in series [1] (amorphous form, dried at 60 °C, 19 relative humidity steps) is “high level of hygroscopicity”. Moreover, in series [1] (amorphous form, dried at 60 °C, 19 relative humidity steps, 0 to 90), the “weight increase of the compound (moisture)” value was “more than 18 % w/w”. Also, the “hygroscopicity of the solid form (general statement)” value in series [1] is “hygroscopic”.

The values are drawn from US20110288142A1, “CRYSTALLINE N--5-chloro-4-(4-chloro-1-methyl-1H-pyrazol-5-yl)-2-thiophenecarboxamide hydrochloride” (priority 2009, published 2011).
